Results from ChEMBL document CHEMBL1201862, “PubChem BioAssay data set” (2004).
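Interpolation was linear, between the two tested concentrations surrounding the appropriate level; five concentrations were tested over 48 hours in 96-well plates. GI50: concentration for 50% inhibition of growth.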 Active and inactive are the calls of the source. Rule as the data show it: active = GI50 up to about 1.1 µM and inactive = higher.

Key:
Test in all cases: growth of human tumour cells (NCI), 48 h
[1] = system: OVCAR-8
[2] = system: NCI-H522
[3] = system: LOX IMVI
[4] = system: HCT-116
[5] = system: HL-60
[6] = system: RPMI-8226
[7] = system: SNB-19
[8] = system: TK-10
[9] = system: UACC-257
[10] = system: NCI-H460
[11] = system: MOLT-4
[12] = system: OVCAR-5
[13] = system: HCC 2998
[14] = system: SF-268
[15] = system: HOP-92
[16] = system: SK-MEL-28
[17] = system: NCI-H226
[18] = system: BT-549
[19] = system: SF-539
[20] = system: UO-31
[21] = system: SF-295
[22] = system: Hs-578T
[23] = system: HCT-15
[24] = system: UACC-62
[25] = system: CCRF-CEM
[26] = system: MDA-MB-231
[27] = system: M14
[28] = system: HT-29
[29] = system: SR
[30] = system: OVCAR-4
[31] = system: MDA-N
[32] = system: SW-620
[33] = system: ACHN
[34] = system: SNB-75
[35] = system: KM12
[36] = system: U-251
[37] = system: MDA-MB-435
[38] = system: SK-MEL-2
[39] = system: EKVX
[40] = system: OVCAR-3
[41] = system: K562
[42] = system: A549
[43] = system: IGROV-1
[44] = system: HOP-62
[45] = system: MCF7
[46] = system: CAKI-1
[47] = system: NCI/ADR-RES
[48] = system: Malme-3M
[49] = system: SK-OV-3
[50] = system: 786-0
[51] = system: NCI-H23
[52] = system: COLO 205
[53] = system: SN12C
[54] = system: DU-145
[55] = system: PC-3
[56] = system: T47D
[57] = system: SK-MEL-5
[58] = system: A498
[59] = system: RXF 393

Measured: GI50

O=CN1CCN(c2ccc3ccc(O)nc3n2)CC1
inactive: [1] > 100 µM | [2] 51.8 µM | [3] > 100 µM | [4] > 100 µM | [5] > 100 µM | [6] > 100 µM | [7] > 100 µM | [8] > 100 µM | [9] > 100 µM | [10] > 100 µM | [11] > 100 µM | [12] > 100 µM | [13] > 100 µM | [14] 69.8 µM | [15] > 100 µM | [16] > 100 µM | [17] > 100 µM | [18] > 100 µM | [19] > 100 µM | [20] > 100 µM | [21] > 100 µM | [22] > 100 µM | [24] > 100 µM | [25] > 100 µM | [26] > 100 µM | [27] > 100 µM | [28] > 100 µM | [29] > 100 µM | [30] > 100 µM | [31] > 100 µM | [32] > 100 µM | [33] > 100 µM | [34] > 100 µM | [35] > 100 µM | [36] > 100 µM | [37] > 100 µM | [38] > 100 µM | [39] > 100 µM | [40] > 100 µM | [41] > 100 µM | [42] > 100 µM | [43] > 100 µM | [44] > 100 µM | [45] > 100 µM | [46] > 100 µM | [47] > 100 µM | [48] > 100 µM | [49] > 100 µM | [50] > 100 µM | [51] > 100 µM | [52] > 100 µM | [53] > 100 µM | [54] > 100 µM | [55] > 100 µM
> 100 µM: [23]

CC(C)(C)c1cc(C(=O)/C=C/C=C/c2ccccc2)cc(C(C)(C)C)c1O
inactive: [56] 28.9 µM | [1] 19.5 µM | [2] 10.3 µM | [3] 19.8 µM | [4] 18.2 µM | [5] 1.55 µM | [6] 6.97 µM | [7] 22.3 µM | [8] 19.5 µM | [57] 11.3 µM | [9] 6.53 µM | [10] 15.4 µM | [11] 12.8 µM | [12] 36.7 µM | [13] 14 µM | [14] 25.2 µM | [15] 42.2 µM | [16] 30.5 µM | [17] 24.3 µM | [18] 18.5 µM | [19] 14.5 µM | [20] 17.6 µM | [21] 27.2 µM | [22] 25.7 µM | [24] 18.1 µM | [25] 3.15 µM | [26] 19.4 µM | [58] 20.6 µM | [27] 17.2 µM | [28] 22.9 µM | [29] 3.24 µM | [30] > 51.5 µM | [32] 11.5 µM | [33] 29.2 µM | [34] 14.7 µM | [35] > 28.2 µM | [36] 14.2 µM | [37] 11.2 µM | [38] 11.7 µM | [39] 25.4 µM | [40] 27.4 µM | [41] 7.31 µM | [42] 17.8 µM | [59] 2.94 µM | [43] 33.3 µM | [44] 41.2 µM | [45] 8.3 µM | [46] 29 µM | [47] 8.73 µM | [48] 47.9 µM | [49] 31.8 µM | [50] 17.1 µM | [51] 27.2 µM | [52] 16.6 µM | [53] 27.4 µM | [54] 29.4 µM | [55] 14.7 µM
15.9 µM: [23]
